# Where two headings read alike, the source gives them in different places.
# Tests used:
# Assay type in all cases: in vivo, SD rats
# [1] = test system: rats with permanent cerebral ischemia injury
# Protocol: 336 healthy male SD rats weighing 250-300 g, provided by the Experimental Animal Center of the Fourth Military Medical University, were randomly divided into […]: the sham operation group, the permanent cerebral ischemia model group, and Examples 1-12 groups. The biphenyl derivatives used in each of the Examples 1-12 groups were the same as those in Example 13.
# Rats were intraperitoneally injected with 10% chloral hydrate 350 mg/kg after anesthesia and opened up at the center of the neck in accordance with the Zea Longa modified method. The right common carotid artery was separated, and the right external carotid artery branches was ligated. A small opening was made at the distal end of the external carotid artery, and a previously prepared thread was inserted through the common carotid artery and the external carotid artery bifurcation into the internal carotid artery, till the anterior end of the middle cerebral artery, with an immersed depth of 18 to 19 mm. The thread was then secured, and the wound was sutured layer by layer. After the operation, the rats were placed in a clean incubator to wake up. […] The sham operation group, the permanent cerebral ischemia model group, and the Example groups were prepared strictly according to the requirements of the cerebral ischemic reperfusion model, while in the sham operation group the thread was put only into the external carotid artery. The animals were allowed to eat and drink freely after waking up. […] The sham operation group and the permanent cerebral ischemia model group were injected with the same amount of blank PEG400 aqueous solution at the same time point.
# The neurological impairment was scored in each group 24 h after the embolism. The scoring was in accordance with the Longa 5-grade method: grade 0: no nerve injury symptom; grade 1: inability of stretching the contralateral forepaw; grade 2: circling to the opposite side; grade 3: tumbling to the opposite side; grade 4: no autonomous activity with loss of consciousness.
# MDA = MDA determination, cerebral ischemic reperfusion MCAO model
# Protocol: (§1) Rats were intraperitoneally injected with 10% chloral hydrate 350 mg/kg after anesthesia and opened up at the center of the neck in accordance with the Zea Longa modified method. The right common carotid artery was separated, and the right external carotid artery branches was ligated. A small opening was made at the distal end of the external carotid artery, and a previously prepared thread was inserted through the common carotid artery and the external carotid artery bifurcation into the internal carotid artery, till the anterior end of the middle cerebral artery, with an immersed depth of 18 to 19 mm. The thread was then secured, and the wound was sutured layer by layer. After the operation, the rats were placed in a clean incubator to wake up. […] The sham operation group, the ischemic reperfusion group, and the Example groups were prepared strictly according to the requirements of the cerebral ischemic reperfusion model, while in the sham operation group the thread was put only into the external carotid artery. The animals were allowed to eat and drink freely after waking up. After 2 h, the thread was pulled out to achieve reperfusion. The sham operation group, the ischemic reperfusion group, and the Example groups were administered intravenously the aqueous solution of the biphenyl derivatives in PEG400 at 40 mg/kg (40 mg/kg means that 40 mg of the test compound per kg of the body weight of rats) 30 min before reperfusion and 12 h after reperfusion, respectively. The sham operation group and the ischemic reperfusion group were injected with the same amount of blank PEG400 aqueous solution at the same time point.
# 24 hours after reperfusion, 8 rats in each group were sacrificed by decapitation, the brain was removed, rinsed with PBS (pH 7.4) at −20° i for 20 min, evenly sliced (with a thickness of 2 mm), stained in a 2% TTC solution at 37°% in the dark for 30 min, fixed in 10% formalin for 24 h, and photographs were taken to analyze the infarct volume. A mixture of femoral arterial and venous blood was drawn from another 8 rats in each group under anesthesia, placed in a low temperature centrifuge at 4° C., centrifuged at 3500 r/min for 20 min, and the supernatant was stored in a refrigerator at −20° C. ready for SOD and MDA detection. After the blood was drawn, a perfusion needle was insert through the apex to the ascending aorta, and saline at 4° C. was rapid infused until the effluent became clear, followed by 4% paraformaldehyde phosphate buffer perfusion for fixation; the brain was removed by craniotomy, and brain tissues 2 mm in front of and behind the optic chiasma were taken and fixed, dehydrated, rendered transparent, impregnated in wax, and embedded. Brain continuous coronary tissue pathological sections were consecutively cut for later use. The remaining 8 rats in each group were sacrificed, brains were removed, the ischemic brain hemispheres were immediately taken on an ice tray, and 10% brain tissue homogenate was prepared for the detection of IL-1β and TNF-α.
# SOD and MDA were determined strictly in accordance with instructions of the kit.
# [2] = test system: rats with cerebral ischemic reperfusion injury
# Protocol: 336 healthy male SD rats weighing 250-300 g, provided by the Experimental Animal Center of the Fourth Military Medical University, were randomly divided into 14 groups: the sham operation group, the ischemic reperfusion group, and Examples 1-12 groups (i.e., the Example groups).
# as §1
# The neurological impairment was scored in each group 24 h after reperfusion. The scoring was in accordance with the Longa 5-grade method: grade 0: no nerve injury symptom; grade 1: inability of stretching the contralateral forepaw; grade 2: circling to the opposite side; grade 3: tumbling to the opposite side; grade 4: no autonomous activity with loss of consciousness.
# [3] = permanent cerebral ischemia model rats, 40 mg/kg intravenously 30 min before insertion of thread and 12 h after embolism, scored 24 h after the embolism, Longa grade 0-4
# [4] = ischemic reperfusion MCAO rats, 40 mg/kg intravenously 30 min before and 12 h after reperfusion, scored 24 h after reperfusion, Longa grade 0-4
# [5] = ischemic reperfusion MCAO rats, 40 mg/kg intravenously 30 min before and 12 h after reperfusion, serum, 24 h after reperfusion
Compound,"Average score of neurological impairment [1, 3]","Average score of neurological impairment [2, 4]",MDA CONTENT (MDA; [5]) [mmol/mL],also measured
"3,3′,5,5′-tetraisopropylbiphenyl-4,4′-bis(oxymethylene phosphate) [Example 3 group]",2.8,2.4,,"MDA CONTENT (MDA; rat, in vivo, iv, 40 mg/kg): 5.36 ± 0.47 mmol/mL"
"CC1=NN(c2ccccc2)C(=O)C1 [Edaravone injection, edaravone, reference compound]",,,,"MDA CONTENT (MDA; ischemic reperfusion rat model, edaravone 3 mg/kg): 6.17 ± 0.54 mmol/mL"
"CC(=O)Oc1c(C(C)C)cc(-c2cc(C(C)C)c(O)c(C(C)C)c2)cc1C(C)C [Example 1 group, 4′-hydroxy-3,3′,5,5′-tetraisopropylbiphenyl-4-acetate]",2.4,2.0,,"MDA CONTENT (MDA; ischemic reperfusion MCAO rats, 40 mg/kg intravenously 30 min before and 12 h after reperfusion, serum, 24 h after reperfusion, 40 mg/kg): 4.74 ± 0.67 mmol/mL"
"CC(=O)Oc1c(C(C)C)cc(-c2cc(C(C)C)c(OC(C)=O)c(C(C)C)c2)cc1C(C)C [Example 2 group, 3,3′,5,5′-tetraisopropylbiphenyl-4′-diacetate]",2.5,2.1,5.44 ± 0.49,
"CC(C)c1cc(-c2cc(C(C)C)c(OC(=O)CCC(=O)O)c(C(C)C)c2)cc(C(C)C)c1O [Example 5 group, [4-(4′-hydroxy-3,3′,5,5′-tetraisopropylbiphenyl)oxy]-4-carbonyl butyric acid]",2.4,2.2,4.47 ± 0.34,
"CCCc1cc(-c2cc(CCC)c(O)c(C(C)C)c2)cc(C(C)C)c1O [Example 6 group, 4,4′-dihydroxy-3,3′-diisopropyl-5,5′-dipropylbiphenyl]",2.2,2.0,4.26 ± 0.41,
"CCCc1cc(-c2cc(CCC)c(O)c(CCC)c2)cc(CCC)c1O [Example 7 group, 4,4′-dihydroxy-3,3′,5,5′-tetrapropylbiphenyl]",2.3,2.1,4.97 ± 0.50,
"CC(C)c1cc(-c2cc(C(C)C)c(C(=O)O)c(C(C)C)c2)cc(C(C)C)c1O [Example 8 group, 4′-hydroxy-3,3′,5,5′-tetraisopropylbiphenyl-4-carboxylic acid]",2.7,2.3,5.12 ± 0.47,
"CC(C)c1cc(-c2cc(C(C)C)c(Cl)c(C(C)C)c2)cc(C(C)C)c1O [Example 9 group, 4-chloro-4′-hydroxy-3,3′,5,5′-tetraisopropylbiphenyl]",,,,"Average score of neurological impairment ([1]; rat, in vivo, iv, 40 mg/kg): 2.8; MDA CONTENT (MDA; rat, in vivo, iv, 40 mg/kg): 5.61 ± 0.71 mmol/mL; Average score of neurological impairment ([2]; rat, in vivo, iv, 40 mg/kg): 2.4"
CC(C)c1cc(-c2cc(C(C)C)c(OC=O)c(C(C)C)c2)cc(C(C)C)c1O [Example 10 group],2.4,2.2,,
"CC(C)c1cc(-c2cc(C(C)C)c(OC(=O)C(N)C(C)C)c(C(C)C)c2)cc(C(C)C)c1O (stereo not drawn) [Example 11 group, 4′-hydroxy-3,3′,5,5′-tetraisopropylbiphenyl-2-amino-3-methylbutyrate]",2.3,2.2,4.92 ± 0.52,
"CC(=O)OC(C)Oc1c(C(C)C)cc(-c2cc(C(C)C)c(O)c(C(C)C)c2)cc1C(C)C (stereo not drawn) [Example 12 group, Ethyl 1-(4′-hydroxy-3,3′,5,5′-tetraisopropylbiphenyl-4-oxo)acetate]",2.6,2.4,5.37 ± 0.55,

# Reference: patent publication US10329243B2, “Biphenyl derivative and uses thereof” (XI'AN LIBANG PHARMACEUTICAL CO., LTD, priority 2015, dated 2019)
